Test results taken from article PMC3071440 (Journal of medicinal chemistry, 2010).

Assays:
[1] = rat, oral 10 mg/kg; cited from earlier work
[2] = In vivo PK in rats following oral administration; settings: rat, oral 10 mg/kg, harvested at or near Tmax

Brain level [2] | Structure (SMILES) | brain levels following oral dosing [1]
 | Cc1c(OCc2cccc(-c3ccc(C(=O)O)cc3)c2)cc2c(c1C)C(=O)C(C1CCCC1)C2 (centres unmarked) [Compound 1, 3′-((2-cyclopentyl-6,7-dimethyl-1-oxo-2,3-dihydro-1H-inden-5-yloxy)methyl)biphenyl-4-carboxylic acid] | below the limit of quantitation
3.8 ± 1.2 µM | O=C(O)c1cc(-c2cccc(COc3ccc4c(c3)CN(C3CCCC3)C4=O)c2)ccc1Cl [Compound 8a, 4-Chloro-3′-((2-cyclopentyl-1-oxoisoindolin-5-yloxy)-methyl)biphenyl-3-carboxylic acid] | 
